# From patent publication US10597388B2, “Pyridazinone herbicides” (FMC CORPORATION, priority 2014, dated 2020)
# Legend:
# Type in all cases: in vivo
# [1] = tested on: ducksalad (Heteranthera limosa); assay: Test B flooded paddy test; conditions: 250 g ai/ha, Flood; visual rating on scale of 0 to 100 where 0 is no effect and 100 is complete control; 13 to 15 d after treatment
# Procedure, shortened: (§1)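 Ratings use a 0-100 visual scale, where 100 is complete control, and compare treated plants with controls after 13 to 15 d of greenhouse growth. Compound went straight into paddy water kept 3 cm over the soil surface, applied to seedlings at the 2-leaf stage.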
# [2] = tested on: barnyardgrass (Echinochloa crus-galli); assay: Test B flooded paddy test; conditions: 250 g ai/ha, Flood; visual rating on scale of 0 to 100 where 0 is no effect and 100 is complete control; 13 to 15 d after treatment
# Procedure, shortened: as §1
# [3] = tested on: sedge, umbrella (small-flower umbrella sedge, Cyperus difformis); assay: Test B flooded paddy test; conditions: 250 g ai/ha, Flood; visual rating on scale of 0 to 100 where 0 is no effect and 100 is complete control; 13 to 15 d after treatment
# Procedure, shortened: as §1
# rice (Oryza sativa) = assay: Test B flooded paddy test; conditions: 250 g ai/ha, Flood; visual rating on scale of 0 to 100 where 0 is no effect and 100 is complete control; 13 to 15 d after treatment
# Procedure, shortened: as §1
# [4] = tested on: barnyardgrass (Echinochloa crus-galli); assay: Test A greenhouse herbicide test, pre- and postemergence
# Procedure, shortened: (§2)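 Visual injury ratings, 0 (no effect) to 100 (complete control), versus untreated plants after roughly 10 d in a greenhouse. Compounds, formulated in a surfactant-containing non-phytotoxic solvent, were sprayed on loam–sand soil after sowing (pre) or on one- to two-leaf plants 2–10 cm tall (post).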
# [5] = tested on: foxtail, giant (giant foxtail, Setaria faberii); assay: as above
# Procedure, shortened: as §2
# corn (Zea mays) = assay: as above; conditions: Postemergence
# Procedure, shortened: as §2
# [6] = tested on: ragweed (common ragweed, Ambrosia elatior); assay: as above
# Procedure, shortened: as §2
# [7] = tested on: ryegrass, Italian (Italian ryegrass, Lolium multiflorum); assay: as above
# Procedure, shortened: as §2
# [8] = tested on: pigweed (Amaranthus retroflexus); assay: as above
# Procedure, shortened: as §2
# [9] = tested on: wheat (Triticum aestivum); assay: as above; conditions: Postemergence
# Procedure, shortened: as §2
# kochia (Kochia scoparia) = assay: as above
# Procedure, shortened: as §2
# [10] = tested on: blackgrass (Alopecurus myosuroides); assay: Test A greenhouse herbicide test, postemergence
# Procedure, shortened: (§3)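 Scores are visual injury ratings from 0 (no effect) to 100 (complete control) versus untreated plants, taken roughly 10 d after treatment in the greenhouse. Treatment was postemergence, on one- to two-leaf plants 2–10 cm high growing in a loam soil/sand mix.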
# [11] = tested on: galium (catchweed bedstraw, Galium aparine); assay: Test A greenhouse herbicide test, postemergence
# Procedure, shortened: as §3
# [12] = Postemergence, 125 g ai/ha, 0 to 100 scale, 0 no effect, 100 complete control
# [13] = Postemergence, 500 g ai/ha, visual rating after approx. 10 d, 0 to 100 scale (0 no effect, 100 complete control)
# [14] = Preemergence, 125 g ai/ha, visual injury rating, 0 to 100 scale (0 no effect, 100 complete control), approx. 10 d
# [15] = Preemergence, 500 g ai/ha, 0 to 100 scale where 0 is no effect and 100 is complete control
# [16] = 125 g ai/ha, 0 to 100 scale, 0 no effect, 100 complete control
# [17] = 500 g ai/ha, visual rating after approx. 10 d, 0 to 100 scale (0 no effect, 100 complete control)
# [18] = Postemergence, 125 g ai/ha, 0 to 100 scale where 0 is no effect and 100 is complete control
# [19] = Postemergence, 500 g ai/ha, 0 to 100 scale, 0 is no effect, 100 is complete control
# [20] = Preemergence, 125 g ai/ha, 0 to 100 scale where 0 is no effect and 100 is complete control
# [21] = 125 g ai/ha, 0 to 100 scale where 0 is no effect and 100 is complete control
# [22] = 500 g ai/ha, 0 to 100 scale, 0 is no effect, 100 is complete control
compound,measurement,setting,value
Cc1nn(C)c(=O)c(-c2ccc(Cl)c3ccccc23)c1OC(=O)C(F)(F)F [Compound 159],"Plant response rating, Ducksalad",[1],0
same,"Plant response rating, Barnyardgrass",[2],0
same,"Plant response rating, Sedge, Umbrella",[3],50
same,"Plant response rating, Rice",rice (Oryza sativa),0
same,"Plant response rating, Barnyardgrass",[4]; [12],40
same,"Plant response rating, Barnyardgrass",[4]; [13],80
same,"Plant response rating, Barnyardgrass",[4]; [14],50
same,"Plant response rating, Barnyardgrass",[4]; [15],80
same,"Plant response rating, Foxtail, Giant",[5]; [12],50
same,"Plant response rating, Foxtail, Giant",[5]; [13],80
same,"Plant response rating, Foxtail, Giant",[5]; [14],60
same,"Plant response rating, Foxtail, Giant",[5]; [15],80
same,"Plant response rating, Corn",corn (Zea mays); [16],20
same,"Plant response rating, Corn",corn (Zea mays); [17],40
same,"Plant response rating, Ragweed",[6]; [12],100
same,"Plant response rating, Ragweed",[6]; [13],100
same,"Plant response rating, Ragweed",[6]; [14],80
same,"Plant response rating, Ragweed",[6]; [15],80
same,"Plant response rating, Ryegrass, Italian",[7]; [12],100
same,"Plant response rating, Ryegrass, Italian",[7]; [13],100
same,"Plant response rating, Ryegrass, Italian",[7]; [14],100
same,"Plant response rating, Ryegrass, Italian",[7]; [15],100
same,"Plant response rating, Pigweed",[8]; [12],60
same,"Plant response rating, Pigweed",[8]; [13],80
same,"Plant response rating, Pigweed",[8]; [14],100
same,"Plant response rating, Pigweed",[8]; [15],100
same,"Plant response rating, Wheat",[9]; [16],0
same,"Plant response rating, Wheat",[9]; [17],30
same,"Plant response rating, Kochia",kochia (Kochia scoparia); [12],100
same,"Plant response rating, Kochia",kochia (Kochia scoparia); [13],100
same,"Plant response rating, Kochia",kochia (Kochia scoparia); [14],100
same,"Plant response rating, Kochia",kochia (Kochia scoparia); [15],100
same,"Plant response rating, Blackgrass",[10]; [16],70
same,"Plant response rating, Blackgrass",[10]; [17],70
same,"Plant response rating, Galium",[11]; [16],100
same,"Plant response rating, Galium",[11]; [17],100
Cc1nn(C)c(=O)c(-c2c([N+](=O)[O-])ccc3ccccc23)c1OC(=O)C1CC1 [Compound 167],"Plant response rating, Ducksalad",[1],0
same,"Plant response rating, Barnyardgrass",[2],0
same,"Plant response rating, Sedge, Umbrella",[3],0
same,"Plant response rating, Rice",rice (Oryza sativa),0
same,"Plant response rating, Barnyardgrass",[4]; [12],20
same,"Plant response rating, Barnyardgrass",[4]; [13],20
same,"Plant response rating, Barnyardgrass",[4]; [14],10
same,"Plant response rating, Barnyardgrass",[4]; [15],20
same,"Plant response rating, Foxtail, Giant",[5]; [12],20
same,"Plant response rating, Foxtail, Giant",[5]; [13],40
same,"Plant response rating, Foxtail, Giant",[5]; [14],10
same,"Plant response rating, Foxtail, Giant",[5]; [15],20
same,"Plant response rating, Corn",corn (Zea mays); [16],0
same,"Plant response rating, Corn",corn (Zea mays); [17],20
same,"Plant response rating, Ragweed",[6]; [12],60
same,"Plant response rating, Ragweed",[6]; [13],70
same,"Plant response rating, Ragweed",[6]; [14],70
same,"Plant response rating, Ragweed",[6]; [15],80
same,"Plant response rating, Ryegrass, Italian",[7]; [12],70
same,"Plant response rating, Ryegrass, Italian",[7]; [13],80
same,"Plant response rating, Ryegrass, Italian",[7]; [14],80
same,"Plant response rating, Ryegrass, Italian",[7]; [15],100
same,"Plant response rating, Pigweed",[8]; [12],70
same,"Plant response rating, Pigweed",[8]; [13],80
same,"Plant response rating, Pigweed",[8]; [14],100
same,"Plant response rating, Pigweed",[8]; [15],100
same,"Plant response rating, Wheat",[9]; [16],0
same,"Plant response rating, Wheat",[9]; [17],0
same,"Plant response rating, Kochia",kochia (Kochia scoparia); [12],50
same,"Plant response rating, Kochia",kochia (Kochia scoparia); [13],70
same,"Plant response rating, Kochia",kochia (Kochia scoparia); [14],60
same,"Plant response rating, Kochia",kochia (Kochia scoparia); [15],100
same,"Plant response rating, Blackgrass",[10]; [16],20
same,"Plant response rating, Blackgrass",[10]; [17],40
same,"Plant response rating, Galium",[11]; [16],70
same,"Plant response rating, Galium",[11]; [17],90
Cc1nn(C)c(=O)c(-c2cccc3ccc(OC(F)F)cc23)c1O [Compound 93],"Plant response rating, Ducksalad",[1],0
same,"Plant response rating, Barnyardgrass",[2],0
same,"Plant response rating, Sedge, Umbrella",[3],50
same,"Plant response rating, Rice",rice (Oryza sativa),0
same,"Plant response rating, Barnyardgrass",[4]; [18],0
same,Barnyardgrass plant response rating,[4]; [19],20
same,Barnyardgrass plant response rating,[4]; [20],0
same,"Plant response rating, Barnyardgrass",[4]; [15],0
same,"Plant response rating, Foxtail, Giant",[5]; [18],0
same,"Foxtail, Giant plant response rating",[5]; [19],10
same,"Foxtail, Giant plant response rating",[5]; [20],0
same,"Plant response rating, Foxtail, Giant",[5]; [15],0
same,"Plant response rating, Corn",corn (Zea mays); [21],0
same,Corn plant response rating,corn (Zea mays); [22],30
same,"Plant response rating, Ragweed",[6]; [18],0
same,Ragweed plant response rating,[6]; [19],50
same,Ragweed plant response rating,[6]; [20],0
same,"Plant response rating, Ragweed",[6]; [15],20
same,"Plant response rating, Ryegrass, Italian",[7]; [18],40
same,"Ryegrass, Italian plant response rating",[7]; [19],90
same,"Ryegrass, Italian plant response rating",[7]; [20],20
same,"Plant response rating, Ryegrass, Italian",[7]; [15],40
same,"Plant response rating, Pigweed",[8]; [18],30
same,Pigweed plant response rating,[8]; [19],60
same,Pigweed plant response rating,[8]; [20],20
same,"Plant response rating, Pigweed",[8]; [15],90
same,"Plant response rating, Wheat",[9]; [21],0
same,Wheat plant response rating,[9]; [22],20
same,"Plant response rating, Kochia",kochia (Kochia scoparia); [18],20
same,Kochia plant response rating,kochia (Kochia scoparia); [19],30
same,Kochia plant response rating,kochia (Kochia scoparia); [20],0
same,"Plant response rating, Kochia",kochia (Kochia scoparia); [15],30
same,"Plant response rating, Blackgrass",[10]; [21],0
same,Blackgrass plant response rating,[10]; [22],0
same,"Plant response rating, Galium",[11]; [21],70
same,Galium plant response rating,[11]; [22],90
